From patent US9249159B2, “Composition for treating hepatitis C virus, regulating phosphorylation of replicase” (Industry-Academic Cooperation Foundation, Yonsei University, priority 2011, dated 2016)

Key:
PRK2 [1] = biological target: T1, PRK2 (Homo sapiens, UniProt Q16513); assay: PRK2 phosphorylation (Thr816) and PRK2 level in R-1 cells by Western blot; assay type: cell-based; settings: R-1 cell, 72 hours
T1 construct: endogenous in cells; host or cells: R-1 (Huh7-derived HCV replicon cells) and Huh7
T1 sequence (Q16513 whole entry): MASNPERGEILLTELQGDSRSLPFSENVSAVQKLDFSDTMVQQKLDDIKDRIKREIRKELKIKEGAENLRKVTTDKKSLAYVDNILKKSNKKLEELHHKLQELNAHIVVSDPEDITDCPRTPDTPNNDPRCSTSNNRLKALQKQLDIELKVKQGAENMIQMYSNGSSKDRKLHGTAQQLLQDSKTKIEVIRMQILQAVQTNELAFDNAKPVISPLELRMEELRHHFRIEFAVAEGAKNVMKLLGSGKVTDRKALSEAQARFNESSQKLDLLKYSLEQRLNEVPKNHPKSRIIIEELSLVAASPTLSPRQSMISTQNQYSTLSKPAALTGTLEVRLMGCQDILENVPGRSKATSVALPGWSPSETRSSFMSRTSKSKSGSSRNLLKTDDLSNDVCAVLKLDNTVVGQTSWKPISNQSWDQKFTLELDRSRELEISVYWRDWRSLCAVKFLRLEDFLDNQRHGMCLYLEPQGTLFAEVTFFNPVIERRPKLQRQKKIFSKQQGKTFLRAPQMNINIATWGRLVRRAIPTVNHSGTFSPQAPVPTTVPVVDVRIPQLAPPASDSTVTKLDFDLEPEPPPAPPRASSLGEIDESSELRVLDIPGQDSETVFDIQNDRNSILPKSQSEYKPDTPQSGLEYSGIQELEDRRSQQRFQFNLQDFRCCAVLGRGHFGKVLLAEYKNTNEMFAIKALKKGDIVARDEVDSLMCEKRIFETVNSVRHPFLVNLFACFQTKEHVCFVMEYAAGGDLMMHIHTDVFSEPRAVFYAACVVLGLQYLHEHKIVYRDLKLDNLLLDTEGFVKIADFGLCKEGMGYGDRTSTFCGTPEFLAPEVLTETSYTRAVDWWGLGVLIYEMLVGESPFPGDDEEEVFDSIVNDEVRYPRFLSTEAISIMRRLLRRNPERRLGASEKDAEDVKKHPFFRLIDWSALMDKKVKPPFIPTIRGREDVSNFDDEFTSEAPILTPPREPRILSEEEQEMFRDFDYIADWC
Description: After the R-1 cell line was treated with the PRK2 inhibitor at a final concentration of 10 or 20 μM for 48 hours, phosphorylation or not of Thr^816 residue essential for activity of PRK2 was analyzed by Western blot using a phospho-PRK2 antibody to measure an expression level of phosphorylated PRK2. Immunoblotting using an anti-α-tubulin antibody was carried out to check whether or not the same amount of protein was loaded.
The levels of the proteins were measured by densitometric analysis of immunoblot, and the phosphorylated amounts and relative intensities calculated with respect to PDK1 and PDK2 were converted with respect to α-tubulin signals and then quantitated. As a result of three independent experiments showing similar results, a representative blot picture was illustrated.
Then, in order to check whether or not IFN-α affected a PDK1-PRK2 signaling pathway, the R-1 cell was treated with 100 IU/ml of IFN-α hourly for 6 hours. SDS-PAGE was carried out to the cell lysates, and immunoblotting was carried out. The immunoblotting with anti-α-tubulin antibody was used as an internal control for loading. A representative result from one of the three independent experiments showing a similar result was illustrated.

PDK1 = assay: Steady state level of PDK1 in Huh7 cell by immunoblotting; assay type: cell-based; settings: increasing concentration, 48 hours
Description: (§1) Total cell lysates from cells treated with inhibitors or IFN-α by using antibodies to PDK1, p-PDK1 (S241), PRK2, and p-PRK2 (T816) (products of Cell Signaling Technology, Inc., Beverly, Mass., USA) was used for immunoblotting. In order to detect PKC isoforms α, β, and γ, a polyclonal antibody to a consensus sequence present in three PKC (protein kinase C) isoforms α, β and γ (anti-pan-PKC; Zymed Laboratories, San Francisco, Calif., USA) was used. An anti-α-tubulin antibody (Oncogene Research Products, Cambridge, Mass., USA) was carried out in immunoblotting for checking whether or not the same amount of protein was loaded.
(§2) In order to test whether or not PDK1 in Huh7 as an HCC cell line was destabilized by inhibition of Hsp90, 17-DMAG as a second-generation geldanamycin derivative known as being safer than geldanamycin or its derivative 17-AAG and effective for oral delivery was used (FIG. 8A). The Huh7 cell was treated for 48 hours along with an increase in concentration of 17-DMAG, and a steady state level of PDK1 was evaluated by immunoblotting.

PRK2 [2] = assay: PRK2 level in Huh7 cell by immunoblotting; assay type: cell-based; settings: 500 nM, 48 hours
pan-PKC (α, β, and γ) = assay: pan-PKC level in Huh7 cell by immunoblotting; assay type: cell-based; settings: 48 hours
Description: as §1, §2

Rho-kinase I (ROCKI) = assay: ROCKI level in Huh7 cell by immunoblotting; assay type: cell-based; settings: 48 hours
HCV NS5B = assay: NS5B phosphorylation in Huh7TR-NS cell (anti-p-Ser immunoprecipitation, anti-NS5B immunoblot); assay type: cell-based, hepatitis C virus; settings: 17-DMAG 50 nM or HA1077 20 μM, 48 hours
Description: The human hepatoma stable cell lines Huh7TR-4 and Huh7TR-NS [17], which express the tetracycline repressor and the HCV NS proteins (NS3-NS5) in a tetracycline-inducible manner, respectively, were maintained in the presence of blasticidin S (10 μg/mlL and Zeocine (100 μg/mL). NS protein expression in Huh7TR-NS was induced by addition of 1 μg/mL tetracycline for 24 h. The Huh7 cell-derived cell line R-1, supporting stable, autonomous replication of genotype 1b HCV subgenomic replicon RNA, was described previously. 17-DMAG, the PRK2 inhibitor, HA1077, and the inhibitor of phosphatidylinositol 3-kinase (PI3K), LY294002, were obtained from Sigma-Aldrich (St. Louis, Mo., USA) and Calbiochem Inc. (La Jolla, Calif., USA), and Biomol (Plymouth Meeting, Pa., USA), respectively. IFN-α was purchased from Sigma-Aldrich (1-4276).
For co-immunoprecipitation experiment, the cells were resuspended in lysis buffer A (100 mM Tris-HCl, pH 8.0, 150 mM NaCl, 1% Triton X-100, 10 mM NaF, 1 mM Na3VO4, 17.5 mM β-glycerophosphate) supplemented with an EDTA-free protease inhibitor cocktail (Roche Applied Science, Indianapolis, Ind., USA) and incubated on ice for 30 min. […]
Then, treatment with 17-DMAG (50 nM) or HA1077 (20 μM), a PRK2 inhibitor, was carried out for 48 hours. […] A case without treatment with an inhibitor was expressed as (−).

HCV IRES = assay: Dual luciferase reporter assay of translation via HCV IRES in Huh7 cell; assay type: cell-based, hepatitis C virus; settings: various concentrations, 72 hours
Description: The dual luciferase expression vector allowing cap-dependent translation of a Renilla (RLuc) reporter and HCV internal ribosome entry site (IRES)-mediated luciferase translation of a firefly luciferase (FLuc) reporter was constructed by inserting the HCV IRES and partial core protein-coding region fused to the cDNA for FLuc downstream of the Renilla luciferase reporter gene as described previously. Huh7 cells were transiently transfected with the bicistronic dual luciferase vector using Fugene HD (Roche Applied Science, Indianapolis, Ind., USA). RLuc and FLuc activities in cell lysates were quantified using the Dual-Glo luciferase assay kit (Promega) on the GloMax-Multi detection system (Promega).
Then, in order to observe an effect of 17-DMAG on translation via HCV IRES, a dual reporter assay was carried out. The Huh7 cell was transfected by a dual reporter assay plasmid (FIG. 11B, upper diagram), and treated with 17-DMAG at various concentrations for 72 hours. […] A level of the Firefly luciferase […] and a Renilla luciferase […] was measured by dual luciferase assay and expressed in % with respect to a control treated with DMSO (first bar). […]

Huh7 cells = assay: Cell cycle analysis of Huh7 cells by flow cytometer; assay type: cell-based, human; settings: 48 hours, 17-DMAG 500 nM
Description: The Huh7 cell treated with 17-DMAG or HA1077 for 48 hours was collected and washed with PBS. The cells were fixed with chilled ethanol for 30 min, treated with RNase A (100 μg/ml) for 5 min at room temperature, stained with 50 μg/mL propidium iodide (PI, Sigma-Aldrich) for 30 min at 37° C., and analyzed using a FACS Calibur flow cytometer (Becton Dickinson, San Jose, Calif., USA).
Then, a cell cycle assay was carried out by using a flow cytometer. Huh7 cells were treated with DMSO (0.25%) or 500 nM of 17-DMAG for 48 hours, and a cell cycle thereof was analyzed by using a flow cytometer to show the percentage of cells in G1, S, and G2/M phases. LY294002 as a PI3K inhibitor was used as a positive control.

## CO[C@H]1/C=C\C=C(/C)C(=O)NC2=CC(=O)C(NCCN(C)C)=C(C[C@@H](C)C[C@H](OC)[C@H](O)[C@@H](C)/C=C(\C)[C@@H]1OC(N)=O)C2=O [17-DMAG, 17-(dimethylaminoethylamino)-17-demethoxygeldanamycin]
PRK2 [1]; 50 nM
  stability of PRK2: not affected
PRK2 [1]; 10 or 50 nM
  level of p-PRK2: decreased
PDK1
  PDK1 level: gradually and significantly decreased
PRK2 [2]
  decrease of PRK2 level as compared with non-treated control: about 68%
pan-PKC (α, β, and γ)
  steady state content of pan-PKC (α, β, and γ): not significantly affected
Rho-kinase I (ROCKI)
  steady state content of Rho-kinase I (ROCKI): not significantly affected
HCV NS5B
  NS5B phosphorylation: inhibited NS5B phosphorylation
HCV IRES
  effect on translation via HCV IRES: did not have an effect
Huh7 cells
  cell cycle (G1, S, G2/M phases): not significantly changed
